Patent US7601708B2, “Bile-acid derived compounds for providing sustained systemic concentrations of drugs after oral administration” (XenoPort, Inc., priority 2000, dated 2009)

Assays:
LBAT [1] = target: T1, LBAT (Homo sapiens, UniProt Q14973); assay: Electrogenic transport in Xenopus oocytes expressing LBAT; format: cell-based; settings: maximal induced current relative to glycodeoxycholate (100 μM)
T1 sequence (Q14973 1-349): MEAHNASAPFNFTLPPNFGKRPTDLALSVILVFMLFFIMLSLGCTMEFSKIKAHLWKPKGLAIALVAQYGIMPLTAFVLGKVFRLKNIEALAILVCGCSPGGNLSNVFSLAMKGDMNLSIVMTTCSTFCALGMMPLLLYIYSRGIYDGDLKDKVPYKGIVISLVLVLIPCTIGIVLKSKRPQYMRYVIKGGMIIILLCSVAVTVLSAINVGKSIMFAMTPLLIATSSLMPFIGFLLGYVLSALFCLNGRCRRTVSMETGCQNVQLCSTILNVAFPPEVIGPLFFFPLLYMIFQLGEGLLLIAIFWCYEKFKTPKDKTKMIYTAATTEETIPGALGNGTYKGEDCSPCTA
Experimental: (b) Analysis of Electrogenic Transport in Xenopus Oocytes RNA Preparation: Human IBAT and LBAT Transporter cDNAs were subcloned into a modified pGEM plasmid that contains [NT] untranslated sequences from the Xenopus β-actin gene. These sequences increase RNA stability and protein expression. […] Xenopus oocyte isolation. Xenopus laevis frogs were anesthetized by immersion in Tricaine ([…] in deionized water) for 15 min. […] The oocytes were washed 6 times, and the buffer changed to frog ringer solution containing CaCl2 (1.8 mM). Remaining follicle cells were removed if necessary. Cells were incubated at 16° C., and each oocyte injected with […] solution. Electrophysiology measurements. […] Bath flow was controlled by an automated perfusion system (ALA Scientific Instruments, solenoid valves). For transporter pharmacology, oocytes were clamped at -60 to -90 mV, and continuous current measurements acquired using PowerLab Software and an ADInstruments digitizer. Current signals were lowpass filtered at 20 Hz and acquired at 4-8 Hz. All bath and drug-containing solutions were frog ringers solution containing CaCl2. […] The difference current (baseline subtracted from peak current during drug application) reflected the net movement of charge resulting from electrogenic transport and was directly proportional to tranport rate.

[2] = Secretion in bile after oral administration to bile duct-cannulated rats; format: in vivo, Sprague-Dawley rats; settings: single oral dose of (8) 85.25 mg/kg
Experimental: Sustained release of gabapentin from a prodrug that is subject to enterohepatic recirculation requires that a proportion of the intact prodrug be absorbed after oral administration and subsequently secreted into the bile intact. The potential for enterohepatic recirculation of intact (8) was examined in rats with indwelling bile duct fistulae. […] Bile was collected continuously in aliquots over 24 hours. Plasma and bile samples were frozen at −80° C. until analyzed. […] Concentrations of intact (8) in bile were similarly determined by LC/MS/MS. Bile (20 μL) was diluted 1:1000 with methanol and injected directly onto the HPLC system. Concentrations of (8) in bile reached a maximum at ˜6 hours post-dosing and were sustained up to 24 hours.

Carboxypeptidase A = target: T2, Carboxypeptidase A (Bos taurus, UniProt P00730); assay: Stability towards purified carboxypeptidase A; format: in vitro ADME; settings: Carboxypeptidase A (10 units/mL); substrate 2.0 μM; no cofactors; 37° C.
T2 sequence (P00730 111-419): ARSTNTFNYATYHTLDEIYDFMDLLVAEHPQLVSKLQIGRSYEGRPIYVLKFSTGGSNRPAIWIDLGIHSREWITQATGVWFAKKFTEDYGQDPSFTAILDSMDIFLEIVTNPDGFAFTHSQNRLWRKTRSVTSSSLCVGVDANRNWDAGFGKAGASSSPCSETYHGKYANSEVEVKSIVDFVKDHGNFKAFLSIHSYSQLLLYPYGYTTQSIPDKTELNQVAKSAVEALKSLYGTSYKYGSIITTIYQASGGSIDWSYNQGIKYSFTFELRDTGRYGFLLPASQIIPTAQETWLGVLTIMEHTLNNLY

IBAT = target: T3, IBAT (Homo sapiens, UniProt Q12908); assay: In vitro uptake by CHO cells transfected with IBAT evaluated by LC-MS/MS; format: cell-based; settings: 0.06 to 1000 μM, 10 min; uptake by untransfected CHO K1 cells subtracted
T3 construct: expressed in transfected cells; host or cells: CHO
Experimental: (§1) Active transport of (8) by the bile acid transport system was evaluated in vitro by incubation of (8) or glycocholate (control substrate) with untransfected CHO K1 cells or CHO cells transfected with either IBAT or LBAT. Cells (10^5 cells/mL) were incubated in 96 well plates with varying concentrations (0.06 to 1000 μM) of (8) or glycocholate for 10 min. Cells were then washed with Hank's Balanced Salt Solution (HBSS) and lysed and extracted by addition of 100 μL of water followed by sonication. Concentrations of (8) or glycocholate in cell extracts were determined by direct injection onto an API 2000 LC/MS/MS equipped with an Agilent 1100 binary pump and autosampler. Separation was achieved using a Keystone BDS Hypersil 2×50 mm column heated to 45° C. during the analysis. The mobile phases were: 0.1% formic acid in water (A) and 0.1% formic acid in acetonitrile (B). The gradient condition was: 5% B for 1 min, increasing to 90% B in 0.2 min, maintained for 2.8 min and returning to 5% B for 2 min. A TurboIonSpray source was used on the API 2000. The analysis was performed in the positive ion mode and MRM transitions of 466/412 and 562/154 were used in the analysis of glycocholate and (8), respectively. Ten microliters of the cell extracts were injected. Peaks were integrated using Analyst quantitation software. […]

LBAT [3] = target: T4, LBAT (Homo sapiens, UniProt Q14973); assay: In vitro uptake by CHO cells transfected with LBAT evaluated by LC-MS/MS; format: cell-based; settings: 0.06 to 1000 μM, 10 min; uptake by untransfected CHO K1 cells subtracted
T4 construct: expressed in transfected cells; host or cells: CHO
Experimental: as §1

[4] = male, Sprague-Dawley, rat, in vivo, po, 85.25 mg/kg
[5] = Pharmacokinetics after oral administration to rats; settings: single oral dose of gabapentin 25 mg/kg

T3 sequence (Q12908 whole entry): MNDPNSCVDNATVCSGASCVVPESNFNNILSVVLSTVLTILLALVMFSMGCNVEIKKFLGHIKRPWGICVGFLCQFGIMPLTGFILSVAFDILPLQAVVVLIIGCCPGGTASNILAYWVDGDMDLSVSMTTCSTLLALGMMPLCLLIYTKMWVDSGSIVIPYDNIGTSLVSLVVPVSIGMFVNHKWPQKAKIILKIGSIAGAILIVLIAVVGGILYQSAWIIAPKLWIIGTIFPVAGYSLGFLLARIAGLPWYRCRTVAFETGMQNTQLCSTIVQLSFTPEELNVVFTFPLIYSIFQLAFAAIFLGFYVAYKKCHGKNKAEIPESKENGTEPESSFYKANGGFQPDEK

## CC(CCC(=O)NCC(=O)NCC1(CC(=O)O)CCCCC1)C1CCC2C3C(O)CC4CC(O)CCC4(C)C3CC(O)C12C (stereo not shown) [(13), Cholyl-Gly-Gabapentin]
LBAT [1]
  % Max. (GDC): 38%

## CC(CCC(=O)NCC1(CC(=O)O)CCCCC1)C1CCC2C3C(O)CC4CC(O)CCC4(C)C3CC(O)C12C (stereo not shown) [Compound (8)]
[2]
  time of maximum concentration of (8) in bile: ~6 h
  time to which concentrations of (8) in bile were sustained: 24 h
[2]; analyte gabapentin
  gabapentin in plasma of bile duct-cannulated rats: no gabapentin was detected
Carboxypeptidase A
  Percent of Gabapentin Released in 60 min: Stable
IBAT
  Active uptake into IBAT transfected cells: Active uptake
LBAT [3]
  Active uptake into LBAT transfected cells: Active uptake
[4]
  time of maximum concentration of intact (8) in plasma: ~8 h
  time to which concentrations of intact (8) in plasma were sustained: 24 h

## NCC1(CC(=O)O)CCCCC1 [gabapentin, 1-aminomethyl-1-cyclohexaneacetic acid]
[5]
  terminal half-life of gabapentin in plasma: 2.4 ± 0.5 h
